Key:
Type in all cases: biochemical
JAK1 = JAK1 (Homo sapiens (Human), UniProt P23458); test: JAK kinase assay (KINASE-GLO luminescent), JAK1 enzyme; conditions: JAK1 enzyme 10 nM, Abl peptide substrate
How it was run: (§1)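 Kinase-Glo luminescence measures ATP remaining after 75 min at room temperature; ATP 2 μM in 4× stock. 11-point 1:5 dilutions, 2.5% DMSO final. Percent of DMSO control per concentration, IC50 by 4-parameter logistic fit.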

JAK2 = JAK2 (Homo sapiens (Human), UniProt O60674); test: JAK kinase assay (KINASE-GLO luminescent), JAK2 enzyme; conditions: JAK2 enzyme 10 nM, Abl peptide substrate
Experimental: All compounds were initially prepared as 10 mM stocks in anhydrous dimethylsulfoxide (DMSO). A 20 μL aliquot of the 10 mM solutions was transferred to individual wells in column 1 of a 96-well polypropylene microtiter plate (Corning #3363) and diluted with DMSO to give a final compound concentration of 4 mM. Test compounds were then serially diluted 1:5 in DMSO for an 11-point concentration response and further diluted in the assay buffer bringing all compound concentrations to a final range of 100 μM to […] in 2.5% DMSO. The assay was performed in white 96-well, flat-bottom, half-area, non-binding assay plate (Corning #3642) in assay buffer consisting of 20 mM HEPES (pH 7.5), 10 mM MgCl2*6H2O, 100 μM sodium orthovanadate, 0.05% CHAPS and 0.1% bovine serum albumin. A 10 μL aliquot of compound from each well of the intermediate dilution plate and 20 μL of a 2× substrate/enzyme solution containing acceptor substrate (800 nM RSK2 peptide […] (SEQ ID NO: 1)), ROCK2 enzyme (10 nM), or ROCK1 enzyme, and 1,4-Dithiothreitol (DTT, 2 uM) were added to all wells. The reaction was initiated by the addition of 10 μL of 4× stock solution ATP (2 μM). Reactions were thoroughly mixed manually, covered, and allowed to incubate at room temperature for 75 min. Protein kinase activity was quantitated using Promega's KINASE-GLO™ luminescent Kinase Assay Kit according to the manufacturer's directions. ATP concentrations remaining in Test wells following the termination of the enzymatic reaction were compared against control wells containing equivalent amounts of DMSO containing no inhibitor (CTRL). […] Percent of Control (POC) values were determined for each concentration of compound tested according to the equation: […]
IC50 values were calculated using the following 4-parameter logistic curve-fitting algorithm:
Compounds were prepared in the exact same manner as described in the ROCK Kinase Assay with the exception to the substrate and enzyme. […]

TYK2 = TYK2 (Homo sapiens (Human), UniProt P29597); test: JAK kinase assay (KINASE-GLO luminescent), TYK2 enzyme; conditions: TYK2 enzyme 10 nM, Abl peptide substrate
How it was run: as §1

Chain of JAK2 (O60674 whole entry, species assumed): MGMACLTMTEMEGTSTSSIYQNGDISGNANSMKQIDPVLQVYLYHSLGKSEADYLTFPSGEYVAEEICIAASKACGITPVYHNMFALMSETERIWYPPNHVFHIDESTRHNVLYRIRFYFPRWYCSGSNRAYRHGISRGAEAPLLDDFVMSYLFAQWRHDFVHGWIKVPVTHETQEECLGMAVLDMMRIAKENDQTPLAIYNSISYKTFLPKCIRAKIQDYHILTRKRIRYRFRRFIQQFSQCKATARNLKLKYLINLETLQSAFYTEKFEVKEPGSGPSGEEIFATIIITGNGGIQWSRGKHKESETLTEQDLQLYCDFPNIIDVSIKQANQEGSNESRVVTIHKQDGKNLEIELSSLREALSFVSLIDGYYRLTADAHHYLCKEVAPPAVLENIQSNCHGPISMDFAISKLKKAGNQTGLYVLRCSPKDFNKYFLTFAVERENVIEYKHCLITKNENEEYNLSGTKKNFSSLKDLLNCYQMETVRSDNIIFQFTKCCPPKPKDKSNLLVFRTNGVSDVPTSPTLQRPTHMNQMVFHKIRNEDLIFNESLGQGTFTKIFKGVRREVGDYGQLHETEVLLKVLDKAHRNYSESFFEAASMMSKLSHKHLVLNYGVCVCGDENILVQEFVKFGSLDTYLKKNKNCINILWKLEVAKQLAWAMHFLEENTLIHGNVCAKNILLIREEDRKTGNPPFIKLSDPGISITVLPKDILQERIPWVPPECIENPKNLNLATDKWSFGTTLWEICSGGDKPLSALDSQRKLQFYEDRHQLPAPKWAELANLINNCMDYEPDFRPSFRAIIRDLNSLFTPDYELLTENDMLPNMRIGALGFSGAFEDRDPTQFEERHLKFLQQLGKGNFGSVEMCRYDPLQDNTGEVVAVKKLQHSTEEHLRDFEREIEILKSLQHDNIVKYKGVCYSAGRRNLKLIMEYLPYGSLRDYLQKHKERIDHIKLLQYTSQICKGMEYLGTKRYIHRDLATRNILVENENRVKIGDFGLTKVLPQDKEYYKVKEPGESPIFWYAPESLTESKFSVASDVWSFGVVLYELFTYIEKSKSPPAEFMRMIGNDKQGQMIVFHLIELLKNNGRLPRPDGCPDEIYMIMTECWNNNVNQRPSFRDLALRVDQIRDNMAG
Chain of JAK1 (P23458 whole entry, species assumed): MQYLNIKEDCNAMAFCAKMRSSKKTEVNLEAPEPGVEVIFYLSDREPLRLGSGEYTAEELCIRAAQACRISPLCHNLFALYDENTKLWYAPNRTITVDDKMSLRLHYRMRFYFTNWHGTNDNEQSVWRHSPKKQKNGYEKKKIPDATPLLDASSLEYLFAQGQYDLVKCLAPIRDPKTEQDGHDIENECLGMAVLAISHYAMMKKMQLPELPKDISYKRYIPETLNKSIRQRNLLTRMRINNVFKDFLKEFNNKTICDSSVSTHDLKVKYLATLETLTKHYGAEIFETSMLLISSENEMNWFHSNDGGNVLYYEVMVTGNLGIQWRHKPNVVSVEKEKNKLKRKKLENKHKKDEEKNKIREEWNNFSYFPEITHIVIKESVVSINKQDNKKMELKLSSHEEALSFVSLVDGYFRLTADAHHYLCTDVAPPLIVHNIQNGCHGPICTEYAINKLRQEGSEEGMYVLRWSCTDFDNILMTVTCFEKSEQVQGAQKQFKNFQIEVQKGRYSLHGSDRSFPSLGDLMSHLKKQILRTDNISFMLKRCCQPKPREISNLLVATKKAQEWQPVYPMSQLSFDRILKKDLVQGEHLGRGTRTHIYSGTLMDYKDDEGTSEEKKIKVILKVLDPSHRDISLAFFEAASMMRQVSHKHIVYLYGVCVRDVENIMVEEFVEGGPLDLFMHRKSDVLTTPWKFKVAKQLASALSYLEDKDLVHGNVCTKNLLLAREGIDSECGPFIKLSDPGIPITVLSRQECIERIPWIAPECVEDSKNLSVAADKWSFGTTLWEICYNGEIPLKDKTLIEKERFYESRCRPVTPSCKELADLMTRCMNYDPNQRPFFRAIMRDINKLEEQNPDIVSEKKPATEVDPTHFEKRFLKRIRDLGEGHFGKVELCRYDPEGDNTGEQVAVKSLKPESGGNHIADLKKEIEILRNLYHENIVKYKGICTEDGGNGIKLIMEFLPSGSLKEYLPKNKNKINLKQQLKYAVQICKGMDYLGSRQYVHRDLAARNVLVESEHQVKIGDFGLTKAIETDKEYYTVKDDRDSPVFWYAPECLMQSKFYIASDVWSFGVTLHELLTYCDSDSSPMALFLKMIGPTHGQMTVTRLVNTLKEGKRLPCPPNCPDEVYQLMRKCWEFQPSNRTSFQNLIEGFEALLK
Chain of TYK2 (P29597 whole entry, species assumed): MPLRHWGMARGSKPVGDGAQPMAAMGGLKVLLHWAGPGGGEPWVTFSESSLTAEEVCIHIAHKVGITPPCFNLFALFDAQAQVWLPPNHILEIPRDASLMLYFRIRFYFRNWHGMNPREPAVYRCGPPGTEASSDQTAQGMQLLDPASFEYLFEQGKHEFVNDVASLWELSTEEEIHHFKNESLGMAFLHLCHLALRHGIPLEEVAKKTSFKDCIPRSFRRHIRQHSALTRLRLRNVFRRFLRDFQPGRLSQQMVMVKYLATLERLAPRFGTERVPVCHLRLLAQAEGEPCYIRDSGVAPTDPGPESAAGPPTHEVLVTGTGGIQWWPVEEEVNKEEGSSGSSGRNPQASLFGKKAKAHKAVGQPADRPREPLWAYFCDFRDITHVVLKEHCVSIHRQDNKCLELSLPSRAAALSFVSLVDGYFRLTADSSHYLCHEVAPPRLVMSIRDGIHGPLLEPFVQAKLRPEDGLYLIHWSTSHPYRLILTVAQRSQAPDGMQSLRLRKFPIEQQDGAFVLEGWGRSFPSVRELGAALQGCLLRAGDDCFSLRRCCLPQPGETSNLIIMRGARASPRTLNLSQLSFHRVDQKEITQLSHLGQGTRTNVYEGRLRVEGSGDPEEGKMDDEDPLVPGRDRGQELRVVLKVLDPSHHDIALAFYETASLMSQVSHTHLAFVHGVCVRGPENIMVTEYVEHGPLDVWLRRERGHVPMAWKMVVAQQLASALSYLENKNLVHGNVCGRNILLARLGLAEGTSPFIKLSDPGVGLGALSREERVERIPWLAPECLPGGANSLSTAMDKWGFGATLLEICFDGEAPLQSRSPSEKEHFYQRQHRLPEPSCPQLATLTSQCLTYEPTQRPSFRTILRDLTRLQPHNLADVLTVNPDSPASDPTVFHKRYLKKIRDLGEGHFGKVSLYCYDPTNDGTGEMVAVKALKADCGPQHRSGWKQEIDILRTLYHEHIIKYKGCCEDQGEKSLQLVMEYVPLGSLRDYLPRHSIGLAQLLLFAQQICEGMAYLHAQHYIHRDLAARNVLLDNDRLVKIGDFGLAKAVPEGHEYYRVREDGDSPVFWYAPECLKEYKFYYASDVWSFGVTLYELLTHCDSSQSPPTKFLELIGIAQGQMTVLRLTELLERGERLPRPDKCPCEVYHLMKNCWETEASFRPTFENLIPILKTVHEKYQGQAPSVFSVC

| Structure (SMILES) | IC50 (JAK1) [nM] | IC50 (JAK2) [nM] | IC50 (TYK2) [nM] |
| --- | --- | --- | --- |
| Cc1cnc(Nc2ccc3c(c2)CN(C)C3)nc1N1CC(CC#N)(N2CCC(CCF)CC2)C1 [E112] | < 50 | < 50 | – |
| Cc1cc(Nc2ncc(C)c(N3CC(C#N)C3)n2)sn1 [E7] | – | < 50 | – |
| Cc1cc(Nc2ncc(C)c(N3CC(CC#N)(N4CC5C(C4)C5(F)F)C3)n2)sn1 (centres unmarked) [E29] | < 10 | – | < 10 |
| Cc1cc(Nc2ncc(C)c(N3CC(CC#N)(N4C5CC4CN(C)C5)C3)n2)sn1 [E50] | < 250 | – | < 400 |
| Cc1cc(Nc2ncc(C)c(N3CC(CC#N)(N4CCN(C)[C@H](C)C4)C3)n2)sn1 [E52C] | – | < 20 | < 10 |
| Cc1cc(Nc2ncc(C)c(N3CC(CC#N)(N4CCN5CCCC[C@@H]5C4)C3)n2)sn1 [E85a] | < 50 | – | < 10 |
| Cc1cc(Nc2ncc(C)c(N3CC(CC#N)(N4CCN(C5CCC5)CC4)C3)n2)sn1 [E64a] | < 10 | – | < 10 |
| Cc1cc(Nc2ncc(C)c(N3CC(CC#N)(N4CCn5cccc5C4)C3)n2)sn1 [E90a] | < 10 | – | < 10 |
| Cc1cc(Nc2ncc(C)c(N3CC(CCCl)(N4CCCCC4)C3)n2)sn1 [E113a] | < 10 | – | < 10 |

The next lines start with the values.

| IC50 (JAK1) [nM] | IC50 (JAK2) [nM] | IC50 (TYK2) [nM] | Structure (SMILES) |
| --- | --- | --- | --- |
| < 100 | – | < 50 | Cc1cc(Nc2ncc(C)c(N3CC(CC#N)(NC(=O)Cc4cccnc4)C3)n2)sn1 [E281] |
| < 10 | – | < 10 | Cc1cnc(Nc2ccc3c(c2)CN(C)C3)nc1N1CC(CC#N)(N2CCC3(CC2)COC3)C1 [E216-G] |
| < 100 | – | < 50 | Cc1cc(Nc2ncc(C)c(N3CC(CC#N)(CN4CCN5C[C@H](F)C[C@H]5C4)C3)n2)sn1 [E117-Y] |
| < 5 | – | < 5 | Cc1cc(Nc2ncc(C)c(N3CC(CC#N)(N4CCC(F)(F)CC4)C3)n2)sn1 [E117-E] |
| < 10 | – | < 10 | Cc1cnc(Nc2cccc(CN(C)C)c2)nc1N1CC(CC#N)(N2CCCC3(C2)CC3(F)F)C1 (centres unmarked) [E116] |
| < 20 | – | < 50 | Cc1cc(Nc2ncc(C)c(N3CC(CC#N)(NC(=O)c4ccc(F)c(F)c4)C3)n2)sn1 [E313] |

— US20240425496A1, “AZETIDINYL PYRIMIDINES AND USES THEREOF” (Aerie Pharmaceuticals, Inc., priority 2021, published 2024)
